Test results reported in patent publication US20160319239A1, “COMPOSITIONS AND METHODS FOR CULTURING CELLS FROM NORMAL HUMAN TUBO-OVARIAN EPITHELIUM AND HUMAN TUBO-OVARIAN TUMORS” (Whitehead Institute for Biomedical Research, priority 2011, published 2016).

Tested on: OCI ovarian tumor lines (P7a, P2a, C2p) and ATCC/ECACC ovarian tumor lines (ES2 and OV90)
Assay: Alamar Blue viable cell assay with serial dilutions of paclitaxel or cisplatin, OCI vs ATCC/ECACC lines
Format: cell-based, human
Details: WIT-oc medium, 5000 cells/well, 72 hrs drug incubation
Experimental: The next day serial dilutions of paclitaxel were added to the plate.
The next day serial dilutions of cisplatin were added to the plate. […] There was a dramatic difference in the effect of the paclitaxel or cisplatin on OCI cell lines vs. ATCC/ECACC cell lines.
Cisplatin is an example of a chemotherapeutic drug that causes DNA cross linking. Cisplatin binds to DNA and chemically crosslinks the two strands, which causes DNA damage during cell division. This elicits repair mechanisms, which in turn activate apoptosis when repair proves impossible. We plated the OCI ovarian tumor lines (P7a, P2a, C2p) and ATCC/ECACC ovarian tumor lines (ES2 and OV90) in WIT-oc medium (5000 cells/well) in plates in triplicate. The next day serial dilutions of cisplatin were added to the plate.

Structure (SMILES): N.N.[Cl][Pt][Cl] [cisplatin]
- concentration that produced a 50% decrease in tumor cell numbers (LD90), fold higher in OCI lines compared to ATCC/ECACC lines: more than 6 fold
